The values that follow come from patent US20240254510A1, “METHODS FOR GENERATING MECHANICALLY-RESPONSIVE CELLS AND USES THEREOF” (Washington University, priority 2021, published 2024).

Experiment [1] concerns TRPV4. The experiment in a line: RNA-sequencing of tissue engineered cartilage: mechanical loading, GSK101, IL-1α. Format: cell-based. Particulars: GSK101 TRPV4 activation, 24 hour time course. As to the method: RNA-sequencing was performed to assess mechanically-sensitive gene targets that are distinct from a cellular inflammation response. […] Targets of interest were selected as targets that were shared between stimulation to mechanical loading and GSK101 agonist activation of TRPV4 but not stimulated by IL-1α inflammation.

Experiment [2] has as its target T1, TRPV4 (Sus scrofa, UniProt B3VP30).
T1 construct: endogenous in cells; host or cells: primary porcine articular chondrocytes (femurs of pigs from a local abattoir)
Nature of the experiment: IL-1Ra production by mechanogenetic cartilage constructs (ELISA). Format: cell-based, porcine. The settings on record: NFKBr-IL1Ra tissues, 1 nM GSK101 3 hours/day over 5 days vs DMSO. The source says: Synthetic mechanogenetic circuits respond to TRPV4 activation to drive transgene expression: TRPV4 activation in response to mechanical loading up-regulates a diverse group of targeted genes. On the basis of the TRPV4-activated signaling pathway, activation of the nuclear factor κ light chain enhancer of activated B cells (NF-κB) pathway was identified and up-regulation of the prostaglandin-endoperoxide synthase 2 (PTGS2) gene as two distinct avenues to construct TRPV4-responsive synthetic mechanogenetic gene circuits. […]
Osmotic stimulation—For calcium imaging studies, osmotic loading media were prepared using Hanks' balanced salt solution medium (Gibco). […] These media were titrated to hypo-osmotic media by adding distilled water and measured with a freezing point osmometer (Osmette 2007; Precision Systems). […]
Mechanogenetic circuit testing outcome measures: Assessing mechanogenetic tissue construct activation in IL-1Ra-producing constructs was measured with an enzyme-linked immunosorbent assay for mouse IL-1Ra (R&D Systems) according to the manufacturer's protocols. […]

In experiment [3] the target is T1, TRPV4. The experiment in a line: Microarray transcriptomic profile of engineered cartilage after mechanical loading or GSK101. Format: cell-based, porcine. The text has this:
TRPV4 activation in chondrocytes induces transient anabolic and inflammatory signaling networks: Next, it was sought to understand the time course of specific downstream signaling pathways and GRNs regulated by mechanical activation of TRPV4 using microarray analysis. Because TRPV4 is a multimodal channel, downstream signaling is likely dependent on the activation mode as well as cell and tissue type. For these studies, primary porcine chondrocytes were cast in agarose to create engineered cartilage constructs and subjected to either compressive mechanical loading [10% sinusoidal peak-to-peak strain at 1 Hz for 3 hours as described previously] or pharmacologic stimulation with the TRPV4 agonist GSK101 (1 nM for 3 hours), or left unloaded (free-swelling controls), and measured the transcriptional activity at 0, 3, 12, and 20 hours following an initial round of stimulation and then at 24 and 72 hours after additional daily bouts of mechanical loading or GSK101 (n=3 per condition per time point; FIG. 3A). […] Up-regulation of these targets was immediate and subsided quickly, with transcript levels returning to baseline 12 to 20 hours after activation.
Microarray collection and analysis: After a 14-day preculture, engineered cartilage constructs (04 mm×2.25 mm) were stimulated under 10% compressive loading or 1 nM GSK101 for 3 hours per day for 3 days. Unstimulated controls (free-swelling) constructs were cultured under identical conditions. Immediately after stimulation, constructs were washed and then fed with culture medium. Constructs were snap-frozen in liquid N2 at 0, 3, 6, 12, 20, 24, and 72 hours after initial stimulation. Total RNA was extracted from the constructs using a pestle homogenizer and the Norgen Biotek RNA/protein purification plus kit. RNA quantity and quality were assessed with NanoDrop (Thermo Fisher Scientific) and the Agilent Bioanalyzer. Total RNA was processed using the Ambion WT expression labeling kit and the Porcine Gene 1.0 ST Array (Affymetrix). […]

Experiment [4] has as its system Piezo1. Nature of the experiment: RNA-seq of tissue engineered cartilage after 80% strain or Yoda1 stimulation. It counts as cell-based. Particulars: 80% strain or Yoda1, RNA-seq. As to the method: Tissue engineered cartilage tissues were either mechanically loaded to 80% strain or stimulated with the Piezo1 agonist Yoda1. Control tissues (FS group) were cultured in vehicle control media and left under free-swelling (non loaded) conditions. RNA-seq was used to assess the transcriptomic regulation to high mechanical loading or Yoda1-stimulation.
Volcano plot projections of gene targets that are differentially regulated by mechanical loading to 80% strain (FIG. 9 left graph) or Yoda1 stimulation (FIG. 9 right graph) display a range of targets that are regulated by Piezo1 stimulation (targets highlighted in red are |LFC|>1 and FDR (padj)<0.05).

T1 sequence (B3VP30 1-871): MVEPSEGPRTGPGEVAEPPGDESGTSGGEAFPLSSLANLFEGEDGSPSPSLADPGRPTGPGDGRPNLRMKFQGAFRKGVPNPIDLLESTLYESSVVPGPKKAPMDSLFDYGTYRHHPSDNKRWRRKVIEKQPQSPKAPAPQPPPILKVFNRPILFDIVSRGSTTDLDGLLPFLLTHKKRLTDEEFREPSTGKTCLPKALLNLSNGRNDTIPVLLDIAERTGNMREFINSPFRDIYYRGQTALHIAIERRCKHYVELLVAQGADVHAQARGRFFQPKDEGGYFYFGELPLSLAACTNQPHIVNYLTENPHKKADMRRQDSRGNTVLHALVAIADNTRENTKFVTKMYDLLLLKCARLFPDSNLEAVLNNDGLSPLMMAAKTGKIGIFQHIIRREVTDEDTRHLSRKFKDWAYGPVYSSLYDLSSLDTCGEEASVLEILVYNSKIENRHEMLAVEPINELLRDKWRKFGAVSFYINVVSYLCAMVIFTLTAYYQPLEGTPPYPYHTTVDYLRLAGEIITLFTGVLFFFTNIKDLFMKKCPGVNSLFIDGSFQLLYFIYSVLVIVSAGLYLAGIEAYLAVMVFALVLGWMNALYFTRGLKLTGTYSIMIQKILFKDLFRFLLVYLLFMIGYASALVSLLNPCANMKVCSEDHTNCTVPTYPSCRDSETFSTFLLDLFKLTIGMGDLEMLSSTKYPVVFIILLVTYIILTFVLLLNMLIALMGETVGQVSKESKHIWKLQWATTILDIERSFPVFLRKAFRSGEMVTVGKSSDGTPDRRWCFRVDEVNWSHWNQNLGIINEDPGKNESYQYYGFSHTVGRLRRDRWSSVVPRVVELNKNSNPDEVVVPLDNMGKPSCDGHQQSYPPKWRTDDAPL

For the molecule `CC(C)C[C@H](NC(=O)c1cc2ccccc2s1)C(=O)N1CCN(C(=O)[C@H](CO)NS(=O)(=O)c2ccc(Cl)cc2Cl)CC1` [GSK101], the “regulation of FGF1, PMEPA1 and snora70” value in experiment [1] is “significantly upregulated”. For the same molecule, the “circuit response to pharmacologic activation of TRPV4” value in experiment [2] is “activated the NFKBr-IL1Ra circuit”. The “genes commonly responsive to both mechanical loading and pharmacologic activation of TRPV4” value in experiment [3] (0, 24 and 72 hours) was determined as 15 genes. Besides, the “transcripts repeatedly responsive to GSK101 supplementation” value in experiment [3] (0, 24 and 72 hours, daily bouts of 1 nM GSK101) was 112 transcripts. Besides, the “transcripts up-regulated under both mechanical loading and pharmacologic stimulation” value in experiment [3] (first 20 hours after initial stimulation, GSK101 1 nM for 3 hours, vs unloaded controls) is 43 transcripts.

In the case of `Clc1cccc(Cl)c1CSc1nnc(-c2cnccn2)s1` [Yoda1], the “gene targets similarly regulated by mechanical loading and Yoda1 stimulation” value in experiment [4] was “ADAMTS1, IGSF9B, PTGS2, NR4A2, LOC100512181, NR4A1, INHBA, and CSRNP2”.
